Measured values: patent US9676822B2, “Oligopeptidic compounds and uses thereof” (APIM THERAPEUTICS AS, priority 2008, dated 2017)
Where a SMILES comes first, the peptide text is derived from it. Where no end group is shown, it is not given here. Side-chain parts run from the residue outwards. The star is where a group is joined. 5FAM = O=C1OC2(c3ccc(O)cc3Oc3cc(O)ccc32)c2ccc(C(=O)*)cc21; Ahx = NCCCCCC(=O)O

Experiments:
[1] = system: HaCaT (spontaneously transformed keratinocyte) cells; experiment: Cell survival assay of HaCaT cells stably expressing the construct; assay type: cell-based
Description: (§1) HeLa and HaCaT cells were seeded into 96 well plates (4000 cells/well) and incubated for 4 hours. […] The U2OS cells were exposed to MMS and TMZ only. The cells were exposed continuously until harvest. Cells were harvested every day for 4 days using the MTT assay (Mosmann, 1983). OD was measured at 570 nm, and the average from at least 6 wells was used to calculate cell survival. Data presented is growth from one representative experiment and has been reproduced at least 2 times.

PCNA [2] = target: T1, PCNA (Homo sapiens, UniProt P12004); experiment: FRET measurement with ECFP-PCNA; assay type: cell-based; conditions: positive FRET: distance between tags less than 100 Å
T1 construct: endogenous in cells; host or cells: HeLa cells stably expressing the EYFP fusion constructs; fractionated cell extracts
From the text: Fluorescent resonance energy transfer (FRET) occurs if the tags (EYFP and ECFP) are less than 100 Å (10 nm) apart. We detected FRET using the sensitised emission method, measuring acceptor (EYFP) emission upon donor (ECFP) excitation. We had FRET when the intensity of emitted light from EYFP after excitation of the ECFP fluorochrome was stronger than the light emitted by ECFP or EYFP-tagged proteins alone, after excitation with the EYFP and ECFP lasers respectively (bleed through), given by the equation: FRET=I2−I1 (ID2/ID1)−I3 (IA2/IA3) is >0. FRET was normalised for expression levels using the equation: NFRET=FRET/(I1×I3)^1/2. NFRET was calculated from mean intensities (I) within a region of interest (ROI) containing more than 25 pixels where all pixels had intensities below 250 and the average intensities were between 100 and 200 for both the donor and the acceptor constructs. Channel 1 (ECFP) and 3 (EYFP) were measured as described above for imaging, and channel 2 (FRET) was excitated with 2=458 nm and detected at λ=530-600 nm. ID1, D2, D3 and IA1, A2, A3 were determined for cells transfected with ECFP and EYFP constructs only, with same settings and same fluorescence intensities as co-transfected cells (I1 and I3). […]
To examine the degree of proximity of hABH2 and PCNA, fluorescence resonance energy transfer (FRET) was measured.

PCNA [3] = target: T1, PCNA; experiment: Co-localisation of EYFP fusion constructs with ECFP-PCNA by confocal imaging; assay type: cell-based; conditions: co-expressed with ECFP-PCNA
Description: Confocal imaging and FRET measurements Live HeLa cells were examined 16-24 hours after transient transfection (by Fugene 6 (Roche Inc.) according to the manufacturer's recommendations) of ECFP and EYFP fusion constructs. Fluorescent images were acquired using a Zeiss LSM 510 Meta laser scanning microscope equipped with a Plan-Apochromat 63×/1.4 oil immersion objective. Enhanced cyan fluorescent protein (ECFP) was excited at λ=458 nm and detected at λ=470-500 nm and enhanced yellow fluorescent protein (EYFP) was excited at λ=514 nm and detected at λ=530-600 nm, using consecutive scans. The thickness of the slice was 1 μm.
PCNA tagged with cyan fluorescent protein (ECFP) was co-expressed with various hABH2 deletion constructs fused with yellow fluorescent protein (EYFP). […] (FIG. 1).

HeLa cells [4] = experiment: Cell survival assay (MTT) of HeLa cells expressing the construct, with alkylating agents; assay type: cell-based
Description: as §1, with “times. […] TZM is reported to be an O^6G methylating agent, while MMC causes interstrand cross links via N-alkylation of guanine in CpG's.” for “times.”

PCNA [5] = target: T1, PCNA; experiment: Co-immunoprecipitation and western analysis of endogenous PCNA; assay type: binding; conditions: anti-GFP immunoprecipitation, extracts of stably expressing cells
Description: HeLa (cervical cancer) and HaCaT (spontaneously transformed keratinocyte) cells stably expressing the constructs of interest were prepared by transfection (by Fugene 6) followed by cell sorting or cloning by dilution, and prolonged culturing in selective (using geneticin, G418, 400 μg/ml, Invitrogen) Dulbecco's modified Eagle's Medium high glucose 4.5 g/l (DMEM) (BioWhittaker®) supplemented with 10% Fetal Calf Serum (FCS), Amphotericin B (250 μg/ml, Sigma-Aldrich), gentamycin (100 μg/ml, Gibco) and glutamine (1 mM, BioWhittaker®). The cells were cultured at 37° C. in 5% carbon dioxide, humidified atmosphere. Fractionated cell extracts from HeLa were prepared by resuspending the cell pellets in 1× packed cell volume (PCV) in buffer I (10 mM Tris-HCl, pH 8.0 and 50 mM KCl) and 1×PCV in buffer II (10 mM Tris-HCl, 100 mM KCl, 20% glycerol, 0.5% Nonidet P-40, 10 mM EGTA, 10 mM MgCl2, 1 mM DTT, 1× Complete protease inhibitor (Roche), phosphates inhibitor cocktail (PIC I and PIC II, Sigma). Cells were incubated under constant shaking for 30 min at 4° C. The supernatant (soluble fraction) was harvested. The pellet (containing nuclei) was resuspended in 1×PCV of buffer III (10 mM Tris-HCl, pH 8.0 and 100 mM KCl) and 1×PCV buffer II, and briefly sonicated until all nuclei were disrupted. […]

[6] = system: EYFP and hABH21-10-EYFP expressing cells; experiment: Flow analysis of the cell cycle after treatment with alkylating agents; assay type: cell-based
From the text: (§2) This is surprising since TMZ is believed to induce mainly O^6methyl-G which is repair by a direct repair mechanism by MGMT, not involving removal of any bases or strand breaks. […] The cells were still arrested in G2/M on day 3.

[7] = system: EYFP and hABH21-10-EYFP expressing cells; experiment: Comet assay for DNA repair intermediates after treatment with alkylating agents; assay type: cell-based
From the text: as §2

cell membranes = assay type: cell-based
Description: The cells were treated with different concentrations (2, 4 and 8 μM) of peptide for 1 hour. Next, propidium iodide (PI) (50 μg/ml in PBS) was added, this will stain DNA if the cell membranes are permeable. Analysis were done within the next 10 minutes on a FACS Canto flow cytometer (BD-Life Science).

HeLa cells [8] = system: HeLa cells
Description: HeLa cells were seeded into 96 well plates (6000 cells/well) and incubated for 3 hours. Various doses of peptides were added to the wells in presence (filled diamonds) or absence of serum (filled square) in the media. After 1 h equal volume media with 10% or 20% serum (to serum free media) were added to the wells. The cells were incubated for 48 hours before measurement of cell survival by the MTT assay.
Cytotoxicity of the peptides was investigated by an MTT assay as described below, using the peptides alone, in the absence of cytostatic drugs. Cytotoxicity data was also obtained from controls used in the cytostatic drug MTT assays (controls with peptide but without cytostatic drug), where the control peptides were followed for longer (4 days).
Cytotoxicity of the peptides after 48 hours are measured using the MTT assay. HeLa cells were seeded into 96 well plates (6000 cells/well) and incubated for 3 hours. Various doses of peptides were added to the wells in presence or absence of serum in the media. After 1 h equal volume media with 1× or 2× (to serum free media) were added and the cells incubated for 48 hours before addition of MTT (see above).

HeLa cells [9] = experiment: MTT assay, peptide with cytostatic drugs (MMS, Cisplatin); assay type: cell-based
Description: The effects of the peptides in sensitising cells to the effects of cytostatic drugs were investigated using an MTT assay and a clonogenic assay (CFU assay) as described below.
HeLa cells were seeded into 96 well plates (6000 cells/well) and incubated for 3 hours. Various doses of MMS and Cisplatin were added to the wells. After 24 hours peptides were added to the cells in serum free media and incubated for 1 h. Fresh media with cytostatic drugs was added and the cells were harvested after additional 24, 48 and 72 hours. MTT was added to the cells (3-(4,5-Dimethylthiazol-2-yl)-2,5-diphenyltetrazolium bromide) and OD was measured at 570 nm [52], and the average from at least 6 wells was used to calculate cell survival. Data is presented as growth from one representative experiment and has been reproduced at least 2 times.

[10] = HeLa cells expressing the construct

T1 sequence (P12004 whole entry, the tested form may be a part): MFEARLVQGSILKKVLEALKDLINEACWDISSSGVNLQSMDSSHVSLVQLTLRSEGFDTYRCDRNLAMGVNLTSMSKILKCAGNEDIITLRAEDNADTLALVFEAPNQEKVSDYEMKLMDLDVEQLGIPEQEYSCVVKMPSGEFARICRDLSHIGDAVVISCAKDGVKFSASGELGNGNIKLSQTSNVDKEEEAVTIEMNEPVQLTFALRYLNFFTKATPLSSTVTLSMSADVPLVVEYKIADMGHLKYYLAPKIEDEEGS

Molecule: hABH21-10-EYFP: the 10 N-terminal amino acids of hABH2 fused to EYFP, expressed in cells (MDRFLVKGAQ; not fully specified (C-terminus); also: fused to EYFP, expressed in cells)
- sensitivity to MMS and TMZ [1]: hypersensitive to MMS and TMZ
- FRET with ECFP-PCNA (PCNA [2]): positive FRET
- co-localisation with PCNA in replication foci (PCNA [3]): sufficient for co-localisation with PCNA
- sensitisation to MMS (HeLa cells [4]; [10]): sensitised HeLa cells to treatment with MMS
- sensitisation to the other cytostatic agents (BCNU, TZM, MMC) (HeLa cells [4]; [10]): sensitised HeLa cells to all of the other cytostatic agents tested
- growth rate of untreated cells (HeLa cells [4]; over-expression, no cytostatic agent): did not interfere with the growth rate of untreated cells
- pull-down of endogenous PCNA (PCNA [5]): pulled down

Molecule: O=NN(CCCl)C(=O)NCCCl [BCNU, 1,3-Bis(2-chloroethyl)-1-nitrosourea]
- cell cycle effect [6]: transient G2/M arrest on day 1
- DNA repair intermediates (abasic sites, SSB, DSB) [7]: very low levels of repair intermediates

Molecule: CC[C@H](C)[C@H](NC(=O)[C@H](CCCCN)NC(=O)[C@@H](NC(=O)[C@H](CCC(N)=O)NC(=O)[C@H](CCCNC(=N)N)NC(=O)[C@H](CC(C)C)NC(=O)[C@@H](NC(=O)[C@H](CCCCN)NC(=O)[C@H](CCCNC(=N)N)NC(=O)[C@H](CCCCN)NC(=O)[C@H](CCCCN)NC(=O)[C@H](CCCCN)NC(=O)[C@@H]1CCCN1C(=O)[C@H](CCC(N)=O)NC(=O)[C@H](C)NC(=O)CNC(=O)[C@H](CCCCN)NC(=O)[C@@H](NC(=O)[C@H](CC(C)C)NC(=O)[C@H](Cc1c[nH]c2ccccc12)NC(=O)[C@H](CCCNC(=N)N)NC(=O)[C@H](CC(=O)O)NC(=O)[C@@H](N)CCSC)C(C)C)C(C)C)[C@@H](C)CC)C(=O)N[C@@H](Cc1c[nH]c2ccccc12)C(=O)N[C@@H](Cc1ccccc1)C(=O)N[C@@H](CCC(N)=O)C(=O)N[C@@H](CC(N)=O)C(=O)N[C@@H](CCCNC(=N)N)C(=O)N[C@@H](CCCNC(=N)N)C(=O)N[C@@H](CCSC)C(=O)N[C@@H](CCCCN)C(=O)N[C@@H](Cc1c[nH]c2ccccc12)C(=O)N[C@@H](CCCCN)C(=O)N[C@@H](CCCCNC(=O)CCCCCNC(=O)c1ccc2c(c1)C(=O)OC21c2ccc(O)cc2Oc2cc(O)ccc21)C(=O)NCC(=O)O [MDR2] (H-MDRWLVKGAQPKKKRKVLRQIKIWFQNRRMKWKK([Ahx-5FAM])G-OH)
- membrane toxicity (cell membranes): membrane toxicity is low

Molecule: Cn1nnc2c(C(N)=O)ncn2c1=O [TMZ, 4-methyl-5-oxo-2,3,4,6,8-pentazabicyclo [4.3.0] nona-2,7,9-triene-9-carboxamide]
- cell cycle effect [6]: arrested in G2/M up to day 3
- DNA repair intermediates (abasic sites, SSB, DSB) [7]: highest levels of repair intermediates after 4 hours

Molecule: COS(C)(=O)=O [MMS, methyl methanesulfonate]
- cell cycle effect [6]: S-phase arrest
- DNA repair intermediates (abasic sites, SSB, DSB) [7]: highest levels of DNA repair intermediates after 4 hours

Molecule: MDRWLVKRIWKKKRKIIRQIKIWFQNRRMKWKK-Ahx5-FAM)G (not fully specified (residue 33, C-terminus); printed as MDRWLVKRIWKKKRKIIRQIKIWFQNRRMKWKK-Ahx5-FAM)G; also: Ahx5-FAM label and G at C-terminal end, arrangement unclear) [MDR26-8]
- Cytotoxicity (HeLa cells [8]): +

Molecule: Ac-MDRWLVKWKKKRKIRRRRRRRRRRR [MDR26-72-0]
- activity in the MTT assay (HeLa cells [9]): good activity
